Results as given in US11352392B2, “Artificially synthesized peptide H-473 and use thereof” (CHINA WEST NORMAL UNIVERSITY, priority 2018, dated 2022).
Ends that are not written are not given here.

How the values were obtained:
asthma in mice = assay: Effect on asthma in mice (OVA sensitization, BALF cell count); format: in vivo, BALB/C mice; conditions: dexamethasone 1 mg/kg intramuscular, 7 d
Method: At day 35 of the experiment, the test samples were respectively given one hour prior to OVA atomization.
5.6.1 Asthma model: mice were injected intraperitoneally with 0.2 ml of a sensitizing solution (ovalbumin OVA 80 μg+ Adjuvant liquid aluminum 0.1 ml) twice on days 0 and 14. From day 24 after the first sensitization, 2.5% OVA was aerosolized and inhaled for 45 min once daily for 18 days.
5.6.2 Administration: the corresponding test sample was given 1 h before the OVA solution atomization challenge since day 35 of the experiment. H-473 15 μg/kg group and H-473 30 μg/kg group were injected intramuscularly, respectively. The positive control group was injected with dexamethasone 1 mg/kg intramuscularly. Normal control group and model control group were injected with saline intramuscularly.
General global observations: respiratory rate, whether there was dyspnea, cyanosis, dysphoria and convulsion.
Bronchoalveolar lavage fluid (BALF) cells were counted and classified (EOS ratio elevated or not).

cfpac-1 xenograft tumors = assay: Pharmacodynamic experiment on cfpac-1 xenograft tumor in nude mice; format: in vivo, BALB/c nude mice; conditions: cfpac-1 xenograft nude mice; H-473 1 μg/kg or Interleukin-2 200,000 IU/kg, tail vein, once a day for 10 times
Method: (§1) Model control group: physiological saline, 0.1 ml/10 g, once a day for 10 times.
The cultured cfpac-1 cell suspension was collected at a concentration of 1×10^7 cells/ml and inoculated subcutaneously in the right axilla of nude mice, 0.1 ml/mouse.
Diameters of the xenograft tumors in nude mice were measured with a vernier caliper. 17 days after inoculation, the animals were randomized into groups with 8 in each group when the tumors grew to 100-150 mm^3. At the same time, each group of nude mice began to be dosed. […] The anti-tumor effect of the test sample was dynamically observed by using a method of measuring tumor diameter. […]
(§2) Tumor volume (TV) was calculated according to the following formula: TV=½×a×b^2, wherein, a and b represent length and width, respectively.
(§3) Relative tumor volume (RTV) was calculated according to the measured results according to the following formula: RTV=Vt/V0, wherein, V0 is tumor volume measured when the animals are divided into cages and dosed (i.e., d0) and Vt is tumor volume at each measurement.
(§4) Evaluation indicator of anti-tumor activity: relative tumor proliferation rate T/C (%) was calculated according to the following formula:
(§5) Evaluation indicator of antitumor activity: tumor growth inhibition rate (%) was calculated according to the following formula: […]

MGC-803 xenograft tumors = assay: Pharmacodynamic experiment on human gastric cancer MGC-803 xenograft tumor in nude mice; format: in vivo, BALB/c nude mice; conditions: MGC-803 xenograft nude mice; H-473 1 μg/kg or Interleukin-2 200,000 IU/kg, tail vein, once a day for 10 times
Method: as §1
The cultured MGC-803 cell suspension was collected at a concentration of 1×10^7 cells/ml and inoculated subcutaneously in the right axilla of nude mice, 0.1 ml/mouse.
Diameters of the xenograft tumors in nude mice were measured with a vernier caliper. 8 days after inoculation, the animals were randomized into groups with 8 in each group when the tumors grew to 100-150 mm^3. At the same time, each group of nude mice began to be dosed. […] The anti-tumor effect of the test sample was dynamically observed by using a method of measuring tumor diameter. […]
as §2, §3, §4, §5

C[C@@H]1C[C@H]2[C@@H]3CCC4=CC(=O)C=C[C@]4(C)[C@@]3(F)[C@@H](O)C[C@]2(C)[C@@]1(O)C(=O)CO [Positive control, dexamethasone]
BALF ESO (asthma in mice): 0.15 ± 0.05^## 10^9/L
BALF ESO % (asthma in mice): 3.75 ± 0.83 %
BALF WBC (asthma in mice): 3.8 ± 0.5^## 10^9/L

RGLRGLR [H-473, RGLRGLR]
Body weight of animals At sacrifice (cfpac-1 xenograft tumors): 22.91 ± 1.12 g
Body weight of animals At sacrifice (MGC-803 xenograft tumors): 22.80 ± 0.97 g
